Positions of bridges follow the written chain, without caps; N, C: chain ends. Residues, ends and D or L forms follow the SMILES beside them.
How the values were obtained:
[1] = Solubility of peptide in water; type: physicochemical; details: dissolved at 2 mg/ml
Method: Peptides insoluble in water were dissolved in 50% acetonitrile: 50% acetonitrile was added to the peptide to give a stock solution which could be further diluted with water for fungal growth assays. Fungal growth was not affected by the presence of acetonitrile at the maximum concentration tested ([…] in the test well).
Split 15-mer peptides were dissolved in sterile milli-Q water to a final concentration of 5 mg/ml. MPS 15-mer peptides were dissolved to a final concentration between 4 and 10 mg/ml using acetonitrile as solvent for those peptides insoluble in water. Split 6-, 9- and 12-mer Rs-AFP 1 peptides were dissolved to a final concentration of 2 mg/ml in 20% acetonitrile. Split 6-, 9- and 12-mer Rs-AFP2 peptides were dissolved to a final concentration of 2 mg/ml in sterile water except for peptides numbers 1 (SEQ ID NO: 133) and 83 (SEQ ID NO: 35, amino acids 37-45) which were dissolved in 50% acetonitrile and numbers 3, 4, 5, 25, 47, 52, 64, 69, 70, 73, 74, 77, 85 and 93 which were dissolved in 20% acetonitrile. Both Rs-AFP1 and Rs-AFP2 peptides were freeze-dried just before weighing. […] The foregoing peptides have the following sequence identifications: […]

[2] = system: Fusarium culmorum (IMI 180420); experiment: Antifungal growth inhibition microplate assay (photospectrometry); type: cell-based; details: for increase of MIC value: 15-mer peptides, 50 mM KCl versus ½ PDB alone
Summary of the method: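 Spores (2×10^4/ml) in half-strength potato dextrose broth exposed to test solution, incubated in the dark at room temperature for about 72 h (96 h for V. dahliae). Growth by OD595 minus 30-min reading; IC50 is 50% and MIC 100% growth inhibition.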

F culmorum = experiment: Antifungal activity of combinations of Rs-AFP and 15-mer peptides; type: cell-based, Fusarium culmorum; details: 100 x MIC of Rs-AFP2 / MIC of Rs-AFP2/peptide combination; 15-mer peptide added at 20 μg/ml; SMF medium; BSA-coated plates; Rs-AFP2 alone = 100
Method: The 15-mer peptides were tested for their ability to affect the antifungal activity of the Rs-AFP2 protein (SEQ ID NO: 35). Each peptide was added at a subinhibitory concentration (20 μg/ml ) to a twofold dilution series of Rs-AFP2 (SEQ ID NO: 35) ranging from 20 μg/ml down to 0.15 μg/ml. In the control series only water was added.
The target fungus was F culmorum and the growth medium was SMF. In order to exclude the effect of differential binding of the peptides to the microplate wells, the plates were coated with bovine serum albumin. […] The relative specific activity is defined as one hundred times the MIC of Rs-AFP2 divided by the MIC of the Rs-AFP2/peptide combination. Data are based on duplicate tests.

Compound | solubility in water [1] | ANTIFUNGAL ACTIVITY, MIC ([2]; Table 8: Loop 1 and Rs-AFP2 15-mer peptides, 1/16 PDB) | ANTIFUNGAL ACTIVITY, IC50 ([2]; Table 9: Loop 1 and Rs-AFP2 15-mer peptides, 1/16 PDB) | Relative Specific Antifungal Activity (F culmorum) | increase of MIC value [2]
CC(=O)N[C@H]1CSSC[C@@H](C(N)=O)NC(=O)[C@H](CCCCN)NC(=O)[C@H](Cc2c[nH]cn2)NC(=O)[C@H](C)NC(=O)[C@@H]2CCCN2C(=O)[C@H](Cc2ccccc2)NC(=O)[C@H](C(C)C)NC(=O)[C@H](Cc2ccc(O)cc2)NC(=O)[C@H](CC(N)=O)NC1=O [Loop 1, CNYVFPAHKC] (Ac-CNYVFPAHKC-NH2; disulfide 1-10) | completely soluble in water | 2.5 µg/mL | 4 µg/mL | – | –
CC(=O)N[C@@H](CCC(=O)O)C(=O)N[C@@H](CCCCN)C(=O)N[C@@H](C)C(=O)N[C@@H](CCCNC(=N)N)C(=O)N[C@@H](Cc1c[nH]cn1)C(=O)NCC(=O)N[C@@H](CO)C(=O)N[C@@H](CS)C(=O)N[C@@H](CC(N)=O)C(=O)N[C@@H](Cc1ccc(O)cc1)C(=O)N[C@H](C(=O)N[C@@H](Cc1ccccc1)C(=O)N1CCC[C@H]1C(=O)N[C@@H](C)C(=O)N[C@@H](Cc1c[nH]cn1)C(N)=O)C(C)C [Peptide 8 (Rs-AFP2 15-mer)] | – | – | – | 470 | about 16 fold
CC[C@H](C)[C@H](NC(=O)[C@H](CS)NC(=O)[C@H](CCC(N)=O)NC(=O)[C@H](CC(N)=O)NC(=O)[C@H](CCCCN)NC(=O)[C@H](CS)NC(=O)[C@H](C)NC(=O)[C@H](CC(N)=O)NC(=O)[C@H](CC(N)=O)NC(=O)[C@H](CC(N)=O)NC(=O)CNC(=O)[C@H](CS)NC(=O)[C@@H](NC(=O)CNC(C)=O)C(C)C)C(=O)N[C@@H](CCCNC(=N)N)C(N)=O [Peptide 4 (Rs-AFP2 15-mer)] (Ac-GVCGNNNACKNQCIR-NH2; N-terminus and C-terminus assumed) | – | – | – | 180 | –
CC(=O)NCC(=O)N[C@H](C(=O)N[C@@H](Cc1c[nH]c2ccccc12)C(=O)N[C@@H](CO)C(=O)NCC(=O)N[C@H](C(=O)N[C@@H](CS)C(=O)NCC(=O)N[C@@H](CC(N)=O)C(=O)N[C@@H](CC(N)=O)C(=O)N[C@@H](CC(N)=O)C(=O)N[C@@H](C)C(=O)N[C@@H](CS)C(=O)N[C@@H](CCCCN)C(=O)N[C@@H](CC(N)=O)C(N)=O)C(C)C)[C@@H](C)O [Peptide 3 (Rs-AFP2 15-mer)] (Ac-GTWSGVCGNNNACKN-NH2; N-terminus and C-terminus assumed) | – | – | – | 180 | –
CC[C@H](C)[C@H](NC(=O)[C@H](CS)NC(C)=O)C(=O)N[C@@H](CCCNC(=N)N)C(=O)N[C@@H](CC(C)C)C(=O)N[C@@H](CCC(=O)O)C(=O)N[C@@H](CCCCN)C(=O)N[C@@H](C)C(=O)N[C@@H](CCCNC(=N)N)C(=O)N[C@@H](Cc1c[nH]cn1)C(=O)NCC(=O)N[C@@H](CO)C(=O)N[C@@H](CS)C(=O)N[C@@H](CC(N)=O)C(=O)N[C@@H](Cc1ccc(O)cc1)C(=O)N[C@H](C(N)=O)C(C)C [Peptide 7 (Rs-AFP2 15-mer), CIRLEKARHGSCNYV] (Ac-CIRLEKARHGSCNYV-NH2; N-terminus and C-terminus assumed) | – | – | – | 350 | twofold
CC[C@H](C)[C@H](NC(=O)[C@H](CS)NC(=O)[C@H](CCCCN)NC(=O)[C@H](Cc1c[nH]cn1)NC(=O)[C@H](C)NC(=O)[C@@H]1CCCN1C(=O)[C@H](Cc1ccccc1)NC(=O)[C@@H](NC(=O)[C@H](Cc1ccc(O)cc1)NC(=O)[C@H](CC(N)=O)NC(C)=O)C(C)C)C(=O)N[C@@H](CS)C(=O)N[C@@H](Cc1ccc(O)cc1)C(=O)N[C@@H](Cc1ccccc1)C(=O)N1CCC[C@H]1C(=O)N[C@@H](CS)C(N)=O [Peptide 10 (Rs-AFP2 15-mer)] (Ac-NYVFPAHKCICYFPC-NH2; N-terminus and C-terminus assumed) | – | – | – | 250 | –
CC[C@H](C)[C@H](NC(=O)[C@H](CS)NC(=O)[C@H](CCCCN)NC(=O)[C@H](Cc1c[nH]cn1)NC(=O)[C@H](C)NC(=O)[C@@H]1CCCN1C(=O)[C@H](Cc1ccccc1)NC(=O)[C@@H](NC(=O)[C@H](Cc1ccc(O)cc1)NC(=O)[C@H](CC(N)=O)NC(=O)[C@H](CS)NC(=O)[C@H](CO)NC(=O)CNC(=O)[C@H](Cc1c[nH]cn1)NC(C)=O)C(C)C)C(=O)N[C@@H](CS)C(N)=O [Peptide 9 (Rs-AFP2 15-mer), HGSCNYVFPAHKCIC] (Ac-HGSCNYVFPAHKCIC-NH2; N-terminus and C-terminus assumed) | – | – | – | 450 | ~8 fold
CC[C@H](C)[C@H](NC(=O)[C@H](CS)NC(=O)[C@H](CCC(N)=O)NC(=O)[C@H](CC(N)=O)NC(=O)[C@H](CCCCN)NC(=O)[C@H](CS)NC(C)=O)C(=O)N[C@@H](CCCNC(=N)N)C(=O)N[C@@H](CC(C)C)C(=O)N[C@@H](CCC(=O)O)C(=O)N[C@@H](CCCCN)C(=O)N[C@@H](C)C(=O)N[C@@H](CCCNC(=N)N)C(=O)N[C@@H](Cc1c[nH]cn1)C(=O)NCC(=O)N[C@@H](CO)C(N)=O [Peptide 6 (Rs-AFP2 15-mer), CKNQCIRLEKARHGS] (Ac-CKNQCIRLEKARHGS-NH2; N-terminus and C-terminus assumed) | – | – | – | 300 | twofold
